Test results as given in patent US20250353873A1, “COMPOUNDS AND METHODS FOR MODULATING APOE EXPRESSION” (Ionis Pharmaceuticals, Inc., priority 2024, published 2025).
Strand notation (5' to 3'): a small letter for the sugar, then the base; units joined by * are phosphorothioate-linked, units joined directly phosphodiester-linked; [ ] holds rarer units or linkages, { } end groups; capitals alone tell only the bases. [ms] = mesyl phosphoramidate linkage; e = 2'-O-(2-methoxyethyl) (MOE); k = constrained ethyl (cEt); [5mC] = 5-methylcytosine; d = 2'-deoxy (DNA)

Key:
human APOE RNA [1] = assay: Activity in APOE C57BL/6NTac-Apoeem7250 knock-in mice, single ICV bolus, 4 weeks (Example 10); type: in vivo; settings: C57BL/6NTac-Apoeem7250 knock-in mice, single ICV bolus 300 μg, 4 weeks (Table 22)
Protocol: (§1) Modified oligonucleotides described above were tested in the APOE C57BL/6NTac-Apoeem7250 knock-in mouse model described above.
APOE C57BL/6NTac-Apoeem7250 knock-in mice were divided into groups of 2-4 mice each. Each mouse received a single ICV bolus of 300 μg of modified oligonucleotide. A group of 3-4 mice received a single ICV bolus with PBS as a negative control.
(§2) Four weeks post treatment, mice were sacrificed and RNA was extracted from cortical brain tissue and spinal cord for quantitative real-time RT-PCR analysis of RNA expression of APOE using human primer probe set RTS3073 (described herein above). APOE RNA levels were normalized to mouse Ppia. Mouse Ppia was amplified using primer probe set m_cyclo24 (described herein above). Results are presented as percent human APOE RNA relative to the amount of human APOE RNA in PBS treated animals, (% control). Each experiment is identified in separate tables below.

human APOE RNA [2] = assay: Dose-dependent inhibition of human APOE RNA in HepG2 cells, electroporation, 24 hours (Example 6); type: cell-based
Outline: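 IC50 derived from APOE RNA levels, given as percent of untreated control after GAPDH normalization (probe sets RTS3073 and RTS104). Oligonucleotides were delivered at multiple concentrations by electroporation into HepG2 cells seeded at 50,000 per well.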

human APOE RNA [3] = assay: Activity in APOE C57BL/6NTac-Apoeem7250 knock-in mice, single ICV bolus, 16 weeks (Example 12); type: in vivo; settings: single ICV bolus 300 μg, 16 weeks post treatment, normalized to mouse Ppia
Outline: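 A single 300 μg intracerebroventricular dose was given, with PBS-treated mice as reference; cortical and spinal cord tissue was taken 16 weeks later. RT-qPCR quantified human APOE RNA, Ppia-normalized, expressed relative to PBS animals (% control).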

human APOE RNA [4] = assay: Activity in APOE C57BL/6NTac-Apoeem7250 knock-in mice, single ICV bolus, 20 weeks (Example 13); type: in vivo; settings: single ICV bolus 300 μg, 20 weeks post treatment, normalized to mouse Ppia
Protocol: as §1
APOE C57BL/6NTac-Apoeem7250 knock-in mice were divided into groups of 4 mice each. Each mouse received a single ICV bolus of 300 μg of modified oligonucleotide. A group of 2-4 mice received a single ICV bolus with PBS as a negative control.
as §2, with “Twenty” for “Four”

Row | Substance | APOE RNA (% control) Cortex (human APOE RNA [1]) [% control] | APOE RNA (% control) Spinal Cord (human APOE RNA [1]) [% control] | IC50 (human APOE RNA [2]) [nM] | APOE RNA (% UTC) (human APOE RNA [2]; 5 nM) | APOE RNA (% UTC) (human APOE RNA [2]; 13 nM) | APOE RNA (% UTC) (human APOE RNA [2]; 33 nM) | APOE RNA (% UTC) (human APOE RNA [2]; 82 nM) | APOE RNA (% UTC) (human APOE RNA [2]; 205 nM) | APOE RNA (% UTC) (human APOE RNA [2]; 512 nM) | APOE RNA (% UTC) (human APOE RNA [2]; 1,280 nM) | APOE RNA (% UTC) (human APOE RNA [2]; 3,200 nM) | APOE RNA (% UTC) (human APOE RNA [2]; 8,000 nM) | APOE RNA (% UTC) (human APOE RNA [2]; 20,000 nM) | APOE RNA (% control) Cortex (human APOE RNA [3]) [% control] | APOE RNA (% control) Spinal Cord (human APOE RNA [3]) [% control] | APOE RNA (% control) Cortex (human APOE RNA [4]) [% control] | APOE RNA (% control) Spinal Cord (human APOE RNA [4]) [% control]
1 | 1736535 (e[5mC]*eT*eT*eG*eGkT*dG[ms]dA[ms]dA[ms]dT*d[5mC]*dT*dT*dT*dA[ms]dT*eT*eA*eA*eA; antisense) [Compound 1736535] | 39 | 63 | 1660 | 90 | 96 | 99 | 93 | 67 | 69 | 53 | 24 | 51 | 13 | 47 | 26 |  | 
2 | 1736514 (e[5mC]*eTeT*eG*kG*kT*dG[ms]dA[ms]dA[ms]dT*d[5mC]*dT*dT*dT*dA[ms]dT*eT*eA*eA*eA; antisense) [Compound 1736514] | 28 | 54 | 670 | 121 | 123 | 96 | 77 | 80 | 46 | 33 | 25 | 23 | 6 | 39 | 16 |  | 
3 | 1779970 (e[5mC]*eTeTkG*kG*eT*dG[ms]dA[ms]dA*dT*d[5mC]*dT*dT*dT*dA*dT*eT*eA*eA*eA; antisense) [Compound 1779970] |  |  |  |  |  |  |  |  |  |  |  |  |  |  |  | 63 | 35
4 | 1757584 (eT*eTeGeGeT*dG*dA*dA*dT*d[5mC]*dT*dT*dT*dA*dT*kTkAeA*eA*e[5mC]; antisense) [Compound 1757584] |  |  |  |  |  |  |  |  |  |  |  |  |  |  |  | 92 | 95
5 | 1736513 (e[5mC]*eTeT*eG*eG*kT*dG[ms]dA[ms]dA[ms]dT*d[5mC]*dT*dT*dT*dA[ms]dT*eT*eA*eA*eA; antisense) [Compound 1736513] | 42 | 52 | 720 | 106 | 110 | 114 | 89 | 72 | 47 | 37 | 33 | 9 | 4 | 53 | 30 |  | 
6 | 1736533 (e[5mC]*eT*eT*eG*eGeT*dG[ms]dA[ms]dA[ms]dT*d[5mC]*dT*dT*dT*dA[ms]dT*kT*eA*eA*eA; antisense) [Compound 1736533] | 34 | 54 | 390 | 83 | 83 | 78 | 74 | 55 | 50 | 38 | 28 | 13 | 5 | 57 | 49 |  | 
7 | 1736536 (e[5mC]*eT*eT*eG*kGkT*dG[ms]dA[ms]dA[ms]dT*d[5mC]*dT*dT*dT*dA[ms]dT*eT*eA*eA*eA; antisense) [Compound 1736536] | 31 | 53 | 620 | 97 | 102 | 79 | 79 | 63 | 58 | 43 | 25 | 9 | 6 | 36 | 31 |  | 
8 | 1736493 (e[5mC]*eTeT*eG*eG*eT*dG[ms]dA[ms]dA[ms]dT*d[5mC]*dT*dT*dT*dA[ms]dT*kT*kA*eA*eA; antisense) [Compound 1736493] | 47 | 51 | 140 | 73 | 85 | 67 | 58 | 50 | 35 | 25 | 8 | 6 | 8 | 57 | 51 |  | 
9 | 1736531 (e[5mC]*eT*eT*eG*eG*kTdG[ms]dA[ms]dA[ms]dT*d[5mC]*dT*dT*dT*dA[ms]dT*eT*eA*eA*eA; antisense) [Compound 1736531] | 42 | 52 | 940 | 97 | 91 | 89 | 86 | 77 | 53 | 49 | 33 | 12 | 20 | 54 | 74 |  | 
10 | 1736534 (e[5mC]*eT*eT*eG*eGeT*dG[ms]dA[ms]dA[ms]dT*d[5mC]*dT*dT*dT*dA[ms]dT*kT*kA*eA*eA; antisense) [Compound 1736534] | 31 | 55 | 890 | 99 | 110 | 93 | 103 | 65 | 50 | 45 | 24 | 19 | 25 | 46 | 34 |  | 
11 | 1736529 (e[5mC]*eT*eT*eG*eG*eTdG[ms]dA[ms]dA[ms]dT*d[5mC]*dT*dT*dT*dA[ms]dT*kT*kA*eA*eA; antisense) [Compound 1736529] | 51 | 46 | 1120 | 92 | 102 | 92 | 115 | 75 | 56 | 45 | 29 | 13 | 30 | 60 | 28 |  | 
12 | 1736532 (e[5mC]*eT*eT*eG*kG*kTdG[ms]dA[ms]dA[ms]dT*d[5mC]*dT*dT*dT*dA[ms]dT*eT*eA*eA*eA; antisense) [Compound 1736532] | 30 | 38 | 280 | 81 | 85 | 74 | 71 | 54 | 41 | 32 | 17 | 23 | 5 | 34 | 45 |  | 
